Measured values reported in US6368788B1 (priority 1987, dated 2002).
Like-named read-outs stand apart in the source and are kept apart here. Marks after values point to notes of the source that are not given here.

How the values were obtained:
[1] = Thoracic cavity tumors: focal radiation therapy then L-Glu-L-Trp, clinical complications; format: in vivo, human; settings: for Complications: Cardio-Pulm. / Complications: Mortality / Complications: Septic / Complications: Total: 5 × im 100 μg
Description: Surgical removal of thoracic tumors was followed in 38 patients by focal radiation therapy and then a course of L-Glu-L-Trp therapy consisting of 5 daily im injections of 100 μg L-Glu-L-Trp each. Only radiation therapy (and supportive antibiotic therapy) was administered as a control to 56 patients.

[2] = test system: upper respiratory infections; assay: Prophylaxis of respiratory infections in polar explorers; format: in vivo, human; settings: intranasal 1 μg/kg, 3 days
[3] = test system: influenza; set-up: species or system human; settings: in vivo
[4] = test system: peripheral blood lymphocytes; assay: Protocol A3 Group 1A: chronic pyoderma; format: in vivo, human
Text: Group 1A (a subgroup of Group 1) consisted of 32 patients (17 males and 15 females ranging from 17 to 42 years of age) with chronic pyococcal skin diseases including furunculosis, disseminated impetigo, multiple ecthymas, recurring osteofolliculitis, seborrhea adiposa, and concrete seborrhea complicated by vulgar or abscessing acne. Diseases were characterized by a chronic course or frequent relapses, and at the time of presentation for entry into the trial, all patients had received several prior courses of antibiotic therapy, none of which led to any detectable clinical improvement. Patients in Group 1A were randomly divided into two treatment groups, the first consisting of 16 patients treated with L-Glu-L-Trp according to Therapy A, below, and the second consisting of 16 patients treated (as a control) according to conventional therapeutic methods- i.e., Therapy B (below).
In treatment Protocol A, all patients received L-Glu-L-Trp in combination with antibiotics.
Therapy B (conventional therapy control): All patients in this protocol received the same antibiotics as in Therapy A and a nonspecific stimulatory agent, i.e., Thymogenin instead of L-Glu-L-Trp.
Local antibiotics were administered as follows: Ampicillin (4), oxacillin (4), Levomycetin (1), tetracycline (9), Rondomycin (2), deoxycycline (8), cephalexin (2), and Rifampicin (1).

[5] = Burns; set-up: species or system human; settings: in vivo
Description: A total of 23 patients with cutaneous burns were treated with L-Glu-L-Trp either im or intranasally. Fourteen patients in a control group were treated using conventional methods.

[6] = test system: C. albicans; format: in vivo, mice; settings: PDR
[7] = DTH sensitization to Oxazolone (ear thickness); format: in vivo, mice; settings: for Mean Ear Thickness ± S.D.: challenge day 7, measured at 24 hours
Description: Effects of L-Glu-L-Trp treatments on cell mediated immunity were evaluated by testing its effects on induction of a delayed-type hypersensitivity response in two different studies involving sensitization of mice to Oxazolone and guinea pigs to tuberculin.
In the first study L-Glu-L-Trp was administered ip at a dose of 10 μg/kg, or 1000 μg/kg one hour before a sensitizing dose of Oxazolone (0.1 mL of a 5% solution) was applied to the abdominal surface of a mouse. Seven days later skin sensitivity was measured by administering 25 μL of a 2% oxazolone solution to the right mouse ear and a sample of the diluent solution, as a control, to the left ear. Ear thickness was measured at 24 hours using a Dyer Model micrometer.

[8] = Group 1A chronic pyoderma, after L-Glu-L-Trp Therapy (n = 16)

L-Glu-L-Trp
Complications: Cardio-Pulm. ([1]; Esophagus, 22 patients): 1
Complications: Mortality ([1]; Esophagus, 22 patients): 0
Complications: Septic ([1]; Esophagus, 22 patients): 1
Complications: Total ([1]; Esophagus, 22 patients): 2
Complications: Cardio-Pulm. ([1]; Lung, 16 patients): 0
Complications: Mortality ([1]; Lung, 16 patients): 0
Complications: Septic ([1]; Lung, 16 patients): 0
Complications: Total ([1]; Lung, 16 patients): 1
Clinical outcome ([1]; human, in vivo): decreased the total number of complications
Clinical outcome [2]: prevented the occurrence of upper respiratory infections
Clinical outcome [3]: significantly decreased the incidence of sickness in the vaccinated subjects for a period of 12 months
B-Lymphocytes [4, 8]: 0.15 ± 0 ×10^9/L
B-Lymphocytes % Normal Value [4, 8]: (31%)
B-Lymphocytes (%) [4, 8]: 7 ± 3%
Basophils (%) [4, 8]: 0.01 ± 0%
Eosinophils (%) [4, 8]: 4.2 ± 1%
Erythrocyte (sed. rate mm) [4, 8]: 13.1 ± 1 mm
Erythrocytes [4, 8]: 4.2 ± 0.1 10^12/L
IgA [4, 8]: 2.7 ± 1 g/L
IgA % Normal Value [4, 8]: (143%)
IgG [4, 8]: 16.2 ± 1 g/L
IgG % Normal Value [4, 8]: (150%)
IgM [4, 8]: 1 ± 0 g/L
IgM % Normal Value [4, 8]: (65%)
Leukocytes [4, 8]: 8.7 ± 0.5 ×10^9/L
Leukocytes % Normal Value [4, 8]: (130%)
Lymphocytes [4, 8]: 2.0 ± 0.2 ×10^9/L
Lymphocytes % Normal Value [4, 8]: (71%)
Lymphocytes, % [4, 8]: 25.9 ± 2.2%
Monocytes, % [4, 8]: 4.5 ± 1%
Neutrophils, % [4, 8]: 63.8 ± 4%
T-Lymphocytes [4, 8]: 1.15 ± 0 ×10^9/L
T-Lymphocytes % Normal Value [4, 8]: (68%)
T-Lymphocytes (%) [4, 8]: 52.3 ± 5%
T-helper [4, 8]: 0.92 ± 0.09 ×10^9/L
T-helper % Normal Value [4, 8]: (70%)
T-helper (%) [4, 8]: 45.4 ± 4.9%
T-suppressor [4, 8]: 0.51 ± 0 ×10^9/L
T-suppressor % Normal Value [4, 8]: (131%)
T-suppressor (%) [4, 8]: 28.2 ± 4%
Blast Transform., Con-A ([4]; Group 1A, L-Glu-L-Trp Therapy): 62.8 ± 8 % of PBL
Blast Transform., PHA ([4]; Group 1A, L-Glu-L-Trp Therapy): 42.7 ± 7 % of PBL
Blast Transform., Staph-A ([4]; Group 1A, L-Glu-L-Trp Therapy): 85.6 ± 9 % of PBL
Clinical outcome [5]: accelerated rate of wound healing
Germ Tube (%) ([6]; 0.1 μg/kg ip): 35* %
Germ Tube (%) ([6]; 1 μg/kg ip): 34* %
Germ Tube (%) ([6]; 10 μg/kg ip): 35* %
Germ Tube (%) ([6]; 100 μg/kg ip): 26* %
Germ Tube (%) ([6]; 300 μg/kg ip): 37%
Mean Ear Thickness ± S.D. ([7]; 10 μg/kg ip one hour before Oxazolone sensitization): 17 ± 1 μm
DTH sensitivity ([7]; 1000 μg dose one hour prior to antigen): increase in DTH sensitivity to oxazolone
Mean Ear Thickness ± S.D. ([7]; 1000 μg/kg ip one hour before Oxazolone sensitization): 24 ± 1 μm
